Blank lines part the entries; values can stand above or below the compound they belong to.
Key:
Ikaros = Ikaros (Homo sapiens (Human), UniProt Q13422); assay: Ikaros degradation in MM1.S cells (Western blot); assay type: cell-based; conditions: 1 μM, relative to GAPDH
Procedure: (§1) For Western blot analysis, total proteins were extracted using RIPA buffer (ThermoFisher Scientific, Waltham, MA) containing Halt Protease Inhibitor Cocktail (ThermoFisher Scientific). […] After incubation at 4° C. overnight, the following HRP conjugated secondary antibodies were used: (i) goat anti-rabbit IgG (ThermoFisher Scientific) for ikaros and aiolos, and (ii) goat anti-mouse IgG (ThermoFisher Scientific) for SALL4 and GAPDH. […] Antigen-antibody complexes were detected using enhanced chemiluminescence (Thermo, iBright CL1500).
(§2) Specifically, MM1.S cells were obtained from ATCC (Manassas, VA, USA), grown in RPMI media supplemented with 10% FBS, penicillin 100 U/mL, and streptomycin […], and maintained at 37° C. and 5% CO2.
(§3) For Western blot analysis, total proteins were extracted using RIPA buffer (ThermoFisher Scientific, Waltham, MA, USA) containing Halt Protease Inhibitor Cocktail (ThermoFisher Scientific). Thereafter, the proteins were separated by gel electrophoresis and then transferred to polyvinylidene difluoride (PVDF) membranes (ThermoFisher Scientific), as described previously. […] Antigen-antibody complexes were detected using enhanced chemiluminescence (ThermoFisher Scientific, iBright CL1500).

SALL4 = SALL4 (Homo sapiens (Human), UniProt Q9UJQ4); assay: SALL4 expression in Tera-1 cells (Western blot); assay type: cell-based
Procedure: as §1, §2
For Western blot analysis, total proteins were extracted using RIPA buffer (ThermoFisher Scientific, Waltham, MA, USA) containing Halt Protease Inhibitor Cocktail (ThermoFisher Scientific). Thereafter, the proteins were separated by gel electrophoresis and then transferred to polyvinylidene difluoride (PVDF) membranes (ThermoFisher Scientific), as described previously. […] After incubation at 4° C. overnight, the following HRP-conjugated secondary antibodies were used: (i) goat anti-rabbit IgG (ThermoFisher Scientific) for Ikaros and Aiolos, and (ii) goat anti-mouse IgG (ThermoFisher Scientific) for SALL4 and GAPDH. […] Antigen-antibody complexes were detected using enhanced chemiluminescence (ThermoFisher Scientific, iBright CL1500).

[1] = target: cereblon (CRBN/DDB1-CUL4A-Rbx1 complex) / BRD3 (Homo sapiens (Human), UniProt Q96SW2); assay: Cereblon/BRD3 binding assay (AlphaScreen / FRET); conditions: cereblon/BRD3 binding FRET assay
Chain of cereblon (CRBN/DDB1-CUL4A-Rbx1 complex) / BRD3 (Q96SW2 whole entry): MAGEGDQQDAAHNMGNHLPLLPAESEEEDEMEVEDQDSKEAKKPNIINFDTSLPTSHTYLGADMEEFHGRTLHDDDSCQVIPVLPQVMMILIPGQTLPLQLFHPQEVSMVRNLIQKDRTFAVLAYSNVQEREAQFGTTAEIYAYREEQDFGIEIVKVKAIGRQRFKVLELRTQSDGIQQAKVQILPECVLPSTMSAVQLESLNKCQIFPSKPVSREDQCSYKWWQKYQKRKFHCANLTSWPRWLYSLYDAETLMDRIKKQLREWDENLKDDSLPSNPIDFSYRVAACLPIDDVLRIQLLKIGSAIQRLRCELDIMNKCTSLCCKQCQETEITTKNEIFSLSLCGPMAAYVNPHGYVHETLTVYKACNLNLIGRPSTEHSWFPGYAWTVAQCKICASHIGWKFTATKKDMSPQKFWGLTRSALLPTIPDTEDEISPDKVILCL
Chain of cereblon (CRBN/DDB1-CUL4A-Rbx1 complex) / BRD3 (Q16531 whole entry partner): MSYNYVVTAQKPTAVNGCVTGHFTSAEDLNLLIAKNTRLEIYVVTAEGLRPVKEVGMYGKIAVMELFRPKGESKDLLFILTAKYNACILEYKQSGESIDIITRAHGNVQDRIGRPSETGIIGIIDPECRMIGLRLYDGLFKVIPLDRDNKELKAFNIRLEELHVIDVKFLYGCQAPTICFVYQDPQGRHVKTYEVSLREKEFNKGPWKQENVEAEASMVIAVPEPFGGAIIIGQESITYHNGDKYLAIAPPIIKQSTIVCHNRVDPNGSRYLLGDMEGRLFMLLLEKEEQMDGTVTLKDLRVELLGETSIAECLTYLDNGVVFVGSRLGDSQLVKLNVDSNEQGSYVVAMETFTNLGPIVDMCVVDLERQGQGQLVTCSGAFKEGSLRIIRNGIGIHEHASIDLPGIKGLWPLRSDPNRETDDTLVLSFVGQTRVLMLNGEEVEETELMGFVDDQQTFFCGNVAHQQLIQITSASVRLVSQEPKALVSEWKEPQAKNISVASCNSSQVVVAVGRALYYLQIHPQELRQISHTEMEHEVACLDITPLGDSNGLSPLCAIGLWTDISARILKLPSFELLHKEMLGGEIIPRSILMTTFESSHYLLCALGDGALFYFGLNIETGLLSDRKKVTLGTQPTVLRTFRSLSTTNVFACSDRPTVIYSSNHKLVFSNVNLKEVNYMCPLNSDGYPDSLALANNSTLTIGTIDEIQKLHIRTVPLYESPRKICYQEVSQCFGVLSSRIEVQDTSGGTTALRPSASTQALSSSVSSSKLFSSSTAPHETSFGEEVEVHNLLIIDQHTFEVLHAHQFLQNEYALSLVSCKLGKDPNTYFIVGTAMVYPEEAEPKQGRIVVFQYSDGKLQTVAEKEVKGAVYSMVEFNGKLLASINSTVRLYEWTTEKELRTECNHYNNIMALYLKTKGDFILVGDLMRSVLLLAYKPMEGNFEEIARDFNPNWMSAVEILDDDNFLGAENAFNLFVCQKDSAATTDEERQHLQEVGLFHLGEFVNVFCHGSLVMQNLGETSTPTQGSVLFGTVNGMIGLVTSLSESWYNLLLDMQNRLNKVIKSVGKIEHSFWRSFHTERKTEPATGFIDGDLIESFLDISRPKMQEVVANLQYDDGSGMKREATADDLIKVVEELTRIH
Chain of cereblon (CRBN/DDB1-CUL4A-Rbx1 complex) / BRD3 (Q13619 whole entry partner): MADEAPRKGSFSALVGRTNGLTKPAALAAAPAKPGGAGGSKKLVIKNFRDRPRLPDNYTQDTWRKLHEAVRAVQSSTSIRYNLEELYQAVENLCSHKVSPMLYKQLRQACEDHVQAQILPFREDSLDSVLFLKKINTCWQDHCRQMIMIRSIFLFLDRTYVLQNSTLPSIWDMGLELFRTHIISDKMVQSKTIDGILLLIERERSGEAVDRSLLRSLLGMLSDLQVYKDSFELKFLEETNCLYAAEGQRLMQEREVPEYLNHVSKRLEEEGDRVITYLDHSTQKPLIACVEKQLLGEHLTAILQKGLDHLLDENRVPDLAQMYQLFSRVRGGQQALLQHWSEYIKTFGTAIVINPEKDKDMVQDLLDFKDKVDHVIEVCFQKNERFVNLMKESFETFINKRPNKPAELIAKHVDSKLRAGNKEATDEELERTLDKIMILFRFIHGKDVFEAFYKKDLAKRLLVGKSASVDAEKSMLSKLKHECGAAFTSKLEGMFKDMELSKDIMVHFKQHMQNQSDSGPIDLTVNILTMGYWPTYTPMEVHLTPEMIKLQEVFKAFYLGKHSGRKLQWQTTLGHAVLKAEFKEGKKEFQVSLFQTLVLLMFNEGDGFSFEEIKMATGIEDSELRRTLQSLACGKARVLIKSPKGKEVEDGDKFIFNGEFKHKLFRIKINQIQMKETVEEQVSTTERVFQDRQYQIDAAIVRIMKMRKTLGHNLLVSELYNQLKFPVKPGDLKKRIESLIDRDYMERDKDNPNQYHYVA
Chain of cereblon (CRBN/DDB1-CUL4A-Rbx1 complex) / BRD3 (P62877 whole entry partner): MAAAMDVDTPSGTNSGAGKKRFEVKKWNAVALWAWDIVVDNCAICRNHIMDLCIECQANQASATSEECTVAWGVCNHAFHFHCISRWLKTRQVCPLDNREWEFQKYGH
Procedure: After 30 min of incubation with shaking at room temperature, AlphaLISA anti-FLAG Acceptor and Alpha Glutathione Donor beads (PerkinElmer) were sequentially added and then incubated for 1 hr at room temperature for each of the added chemicals. Alpha counts were thereafter read on a Synergy Neo2 (BioTek) for the analysis. Relative activity or inhibition was calculated as the highest value, which was set to 100%, and the lowest value was set to 0% after subtraction of the “blank value” from all readings.
After 30 min of incubation with shaking at room temperature, AlphaLISA anti-FLAG Acceptor and Alpha Glutathione Donor beads (PerkinElmer) were sequentially added and then incubated for 1 h at room temperature for each of the added chemicals. Alpha counts were thereafter read on a Synergy Neo2 (BioTek) for the analysis. The relative activity of the alpha signal was calculated after subtraction of the “blank value” from all readings, and the value of the vehicle group was then set as 100%.

Aiolos = Aiolos (Homo sapiens (Human), UniProt Q9UKT9); assay: Aiolos degradation in MM1.S cells (Western blot); assay type: cell-based; conditions: 1 μM, relative to GAPDH
Procedure: as §1, §2, §3

[2] = Phase I metabolic stability in human liver microsomes (+/- NADPH, LC/MS); assay type: in vitro ADME; conditions: for % Compound Remaining (mean), NADPH: with NADPH; for % Compound Remaining (mean), -NADPH: without NADPH
Procedure: The fluorinated compounds were evaluated under the more metabolically demanding conditions of a Phase-1-type microsomal analysis. […] For this initial comparison, the 7-fluoro-dithiopomaldiomide 30 was selected owing to its combination of favorable biological parameters and general ease of synthesis. The reactions on each sample were initiated by addition of human liver microsomes in the presence or absence of an NADPH regenerating system, and compound disappearance was monitored via LC/MS (FIG. 14, Table 10).

[3] = system: LPS-induced nitrite in RAW 264.7 cells; assay: LPS-induced nitrite production in RAW 264.7 cells (Griess reagent / fluorometric kit); assay type: cell-based, mouse; conditions: for Nitrite, % Change versus Control (± s.e.m.): 10 uM; for nitrite level, % of vehicle control: LPS-challenged RAW 264.7 cells, percentage of vehicle control value (control = 100%), mean ± S.E.M., n = 3
Procedure: Nitrite ion detection in drug treated […] cell culture media: To measure the levels of nitrite ion NO2—) the Griess Reagent System (Promega, Madison, WI, Cat #G2930) was utilized. The protocol followed was that recommended by the manufacturer. In brief a NO2— ion standard curve was prepared in culture media of the same composition to that used for the cell culture study. The concentration range of the standard curve was from 1.5 µM to 100 µM. Equal volumes (50 μL) of standards and unknown samples were added to clear 96 well plates in duplicate. Then 50 μL of sulfanilamide solution was added to each well and the plate was covered and incubated in the dark for 10 min. After the incubation period 50 μL of N-1-napthylethylenediamine dihydrochloride solution was added to each well and the plate was incubated in dark for a further 10 min. After this incubation, the plate was read at 550 nm on a SPECTRAmax PLUS plate reader and the absorbances were used to generate a NO2— standard curve and the NO2— ion levels of the unknown samples are determined using SoftMax Pro V5, Molecular Devices.
Most neurons are highly vulnerable to RNS and ROS. Nitric oxide (NO) is one of RNSs, which is very short lived and cannot be readily measured. However, nitrite is a stable end product of nitric oxide metabolism. Therefore, nitrite acts as a surrogate measure of NO. The Griess Reagent System (Promega Corporation, Madison, WI) can be applied to measure nitrite levels in culture media following the manufacturer's protocol, and this system was used in the present study as it is a more sensitive assay compared to quantifying actions on TNF-α by ELISA assay. […] This challenge induces high level of TNF-α protein accompanied by a robust generation of nitrite.
(§4) Cells were propagated as described by ATCC guidelines.

TNF-α = assay: LPS-induced TNF-α production in RAW 264.7 cells (ELISA); assay type: cell-based, mouse; conditions: for TNF-a, % Change versus Control (± s.e.m.): 10 uM; for TNF-α % Δ: LPS-challenged RAW 264.7 cells, percentage of vehicle control value (control = 100%), mean ± S.E.M., n = 3
Procedure: Enzyme-linked immunosorbent assay for TNF-α protein: Media TNF-α levels were measured by use of the Biolegend ELISA MAX Set Delux ELISA (#430904). The protocol used was that recommended by the manufacturer. In brief, a day prior to performing the assay, a 96 well plate was coated with a capture antibody directed against TNF-α. The following day the assay plate was washed and blocked with the kit blocking agent for 1 h while being mixed on a plate shaker at 200 rpm (all incubations were mixed at 200 rpm unless stated otherwise). A TNF-α protein standard curve was prepared in the assay diluent following the kit instructions and unknown media samples were likewise diluted in the same assay diluent. After blocking, the plate was washed and then both the standards and unknown media samples were added to the plate in duplicate. The standards and unknown samples were incubated for 2 h. After the incubation, the plate was washed and then the biotin labeled detection antibody was added to each well and incubated for a further 1 h. After this incubation, the avidin-HRP conjugate complex was added to each well and incubated for 30 min. The plate was washed and the chromogenic substrate 3,3′,5,5′-tetramethylbenzidine solution was added to each well. At this point the plate was covered and incubated in the dark for 15 min, with no mixing. After 15 min the chromogenic reaction was stopped by the addition of 2 N H2SO4 and the absorbance was read at 450 nm and for background subtractions at 570 nm, on a SPECTRAmax PLUS plate reader. The absorbances were used to generate a TNF-α a protein standard curve and the protein levels in the unknown samples were determined using SoftMax Pro V5, Molecular Devices.
as §4

RAW 264.7 cells = assay: Cell viability of drug treated RAW 264.7 cells (CellTiter 96 AQueous One, MTS); conditions: for Viability, % Change versus Control (± s.e.m.): 10 uM; for Cell Viability % Δ: RAW 264.7 cells, percentage of vehicle control value, mean ± S.E.M., n = 3
Procedure: Assessments of drug anti-TNF-α and nitric oxide generation in RAW 264.7 cells: RAW 264.7 cells were purchased from ATCC Manassas, VA, USA). The cells were grown in DMEM media (Invitrogen, DMEM, high glucose, GlutaMAX Supplement, pyruvate, #10569-010) supplemented with 10% FBS (Invitrogen, Fetal Bovine Serum, qualified, heat inactivated, #16140-071) with penicillin and streptomycin (Invitrogen, Penicillin-Streptomycin (10,000 U/mL), #15140-122) and were maintained at 37 C and 5% CO2. The cells were grown to 75%-85% confluence on 10 cm plates (corning-Fal-con, #353003) following the protocol described by ATTC. to assess for drug effects on LPS-induced markers of inflammation, namely TNF-α protein and nitrite ion levels (NO2, a stable end-product of nitric oxide metabolism) cells were seeded into 24 well (VWR, #10062-896) at a density of 200×10^3 cells per well. On each plate there was one blank well where no cells were added yet culture media in the well was treated similarly to wells with cells (n=1). The blank well media was used for background subtraction for various downstream assays. twenty-four hours after seeding the plate the seeding media was replaced with fresh media. Two hours after this the cells were exposed to a range of concentrations of drug test-compound(s) dissolved in 100% tissue culture grade dimethyl sjloxide (DMSO, SIGMA #D2650). Drug stocks were prepared in a 200 times more concentrated stock in DMSO. The final concentration of DMSO added to the cells was 0.5%. The effects of each concentration of drug were assessed in 4 wells per concentration in the 24 well plate (n=3 #-4). On each plate one set of wells were assigned as drug-vehicle control (i.e. DMSO), one test compound was assessed on one 24 well plate. […] One hour after the drugs were added the cells were challenged with lipopolysaccharide (LPS, SIGMA, serotype 055:B5) at a final concentration of 60 ng/ml. Twenty to twenty-four hours after the cells were challenged with LPS the culture media was collected and utilized for the measurement of markers of inflammation.
Cellular viability assessment of drug treated RAW 264.7 cells: RAW 264.7 cell viability was determined by use of the CellTiter 96 AQueous One Solution Cell Proliferation Assay (Promega, Madison, WI). Changes in cellular health status were determined by use of indirect measures related to the formation of a colored tetrazolium dye product that can be measured spectrophotometrically at 490 nm. An increase in absorbance at 490 nm is indicative of an increase in numbers of healthy cells; similarly a reduction in absorbance is indicative of a reduction of healthy cells. After the culture media was harvested for use in TNF-α and NO2— ion assays, the media was replaced with 0.5 mL of fresh media plus 100 μL of the cell viability reaction mixture. After a 20-30 min incubation at 37° C. with 5% CO2 the absorbance at 490 nm was obtained using an infinite M200 PRO plate reader (TECAN, USA).
Statistical analyses for RAW-derived assays: Data are expressed as a percentage change from the DMSO-vehicle control measurements. Measurements are expressed as mean±standard errors, where the n number represents the number of wells in a 24 well plate. Due to the presence of one blank control well on each plate, for some drug concentrations the n number is 3 # and not 4. Statistical comparisons were undertaken by use of a One-Way ANOVA with appropriate Bonferroni corrections for multiple comparisons, as required (GraphPad InStat Version 3.05). P values of <0.05 are considered to be of statistical significance.
RAW 264.7 cell culture: RAW 264.7 mouse cells were purchased from ATCC (Manassas, VA, USA) and grown in DMEM media supplemented with 10% FCS, penicillin 100 U/ml and streptomycin 100 μg/ml (ThermoFisher Scientific, Asheville, NC, USA). The cells were maintained at 37° C. and 5% CO2.

[4] = LPS-activated RAW 264.7 cells (Table 9)

Ikaros levels (Ikaros): dramatically lowerered
SALL4 levels (SALL4; human Tera-1 cells, 0.01, 0.1, 1 μM, relative to GAPDH): dramatically lowerered
cereblon binding (in words) [1]: potently bind to cereblon
Aiolos levels (Aiolos): dramatically lowerered
SMILES: Nc1cccc2c1C(=O)N(C1CCC(=O)NC1=O)C2=O (racemic) [Pomalidomide, pomalidomide, reference compound]
SALL4 expression levels (SALL4; Tera-1 cells, 1 μM): induced a decrease in expression levels of SALL4

material consumed ([2]; after 1 hr incubation, human liver microsomes): more than half
stability in human liver microsomes (in words) ([2]; with and without NADPH): moderate level of instability
SMILES: Nc1cccc2c1C(=S)N(C1CCC(=S)NC1=O)C2=O (stereo not shown) [4′, 3,6′-dithiopomalidomide, reference compound]
nitrite levels (in words) ([3]; six-compound pomalidomide grouping, RAW cell assay, FIGS. 12-13): reduced nitrite levels significantly

% Compound Remaining (mean), NADPH ([2]; human liver microsomes, 0 min): 100%
% Compound Remaining (mean), NADPH ([2]; human liver microsomes, 30 min): 68%
% Compound Remaining (mean), NADPH ([2]; human liver microsomes, 60 min): 48%
% Compound Remaining (mean), -NADPH ([2]; human liver microsomes, 0 min): 100%
% Compound Remaining (mean), -NADPH ([2]; human liver microsomes, 30 min): 71%
% Compound Remaining (mean), -NADPH ([2]; human liver microsomes, 60 min): 53%
SMILES: Nc1ccc(F)c2c1C(=S)N(C1CCC(=S)NC1=O)C2=O (stereo not shown) [drawing 96]

SMILES: CC(C)Nc1ccc(F)c2c1C(=S)N(C1CCC(=S)NC1=O)C2=O (stereo not shown) [Compound 28, 7-fluoro-4-(isopropylamino)-2-(2-oxo-6-thioxopiperidin-3-yl)-3-thioxoisoindolin-1-one]
TNF-a, % Change versus Control (± s.e.m.) (TNF-α; LPS-activated RAW 264.7 cells): 74.7 ± 2.3%
Viability, % Change versus Control (± s.e.m.) (RAW 264.7 cells; LPS-activated RAW 264.7 cells): 74.1 ± 4.2%
Nitrite, % Change versus Control (± s.e.m.) ([3]; LPS-activated RAW 264.7 cells): 32.3 ± 1.1%

SMILES: C[C@H]1[C@H](N2C(=O)c3c(F)ccc(F)c3C2=O)C[C@@H]2C[C@H]1C2(C)C [Compound 17, 4,7-Difluoro-2-((1R,2R,3R,5S)-2,6,6-trimethylbicyclo[3.1.1]heptan-3-yl) isoindoline-1,3-dione]
TNF-α % Δ (TNF-α; 1 μM): 95 ± 3%
TNF-α % Δ (TNF-α; 10 μM): 77 ± 3%
Cell Viability % Δ (RAW 264.7 cells; 1 μM): 100 ± 4%
Cell Viability % Δ (RAW 264.7 cells; 10 μM): 81 ± 5%
nitrite level, % of vehicle control ([3]; 1 μM): 90 ± 5%
nitrite level, % of vehicle control ([3]; 10 μM): 54 ± 3%

SMILES: CC1(C)[C@H]2CC[C@@H](CN3C(=O)c4c(F)ccc(F)c4C3=O)[C@@H]1C2 [Compound 19, 2-(((1S,2R,5S)-6,6-dimethylbicyclo[3.1.1]heptan-2-yl)methyl)-4,7-difluoroisoindoline-1,3-dione]
TNF-α % Δ (TNF-α; 1 μM): 102 ± 2%
TNF-α % Δ (TNF-α; 10 μM): 82 ± 2%
Cell Viability % Δ (RAW 264.7 cells; 1 μM): 98 ± 2%
Cell Viability % Δ (RAW 264.7 cells; 10 μM): 93 ± 4%
Cell Viability % Δ (RAW 264.7 cells; 30 μM): 67 ± 3%
nitrite level, % of vehicle control ([3]; 1 μM): 79 ± 2%
nitrite level, % of vehicle control ([3]; 10 μM): 63 ± 3%
nitrite level, % of vehicle control ([3]; 30 μM): 22 ± 1%

SMILES: Nc1c(F)ccc2c1C(=S)N(C1CCC(=S)NC1=O)C2=O (stereo not shown) [drawing 94]
TNF-a, % Change versus Control (± s.e.m.) (TNF-α; [4]): 114 ± 3.9 (N.S.) %
Viability, % Change versus Control (± s.e.m.) (RAW 264.7 cells; [4]): 92 ± 1.6 (N.S.) %
Nitrite, % Change versus Control (± s.e.m.) [3, 4]: 40 ± 1.2 (N.S.) $ %

Reference: patent publication US20260055061A1, “HALOPHTHALIMIDE COMPOUNDS AND METHODS OF USE AGAINST TBI, INFLAMMATORY DISORDER, AUTOIMMUNE DISORDER, NEURODEGENERATIVE DISEASE OR VIRAL INFECTION” (The United States of America, as represented by the …, priority 2022, published 2026)
